Reference: PubChem BioAssay AID1259407 (Chemical Carcinogenesis Research Information System (CCRIS), 2018)
Active and inactive are the calls of the source. No rule for the calls is given here.

Tested on: CCRIS mutagenicity, Ames/micronucleus/aberration tests
Experiment: CCRIS mutagenicity studies
[1] = Test System: AMES SALMONELLA TYPHIMURIUM, Strain/Indicator: TA98, Metabolic Activation: NONE, Method: PREINCUBATION
[2] = Test System: AMES SALMONELLA TYPHIMURIUM, Strain/Indicator: TA100, Metabolic Activation: NONE, Method: PREINCUBATION
[3] = Test System: AMES SALMONELLA TYPHIMURIUM, Strain/Indicator: TA1535, Metabolic Activation: NONE, Method: PREINCUBATION
[4] = Test System: AMES SALMONELLA TYPHIMURIUM, Strain/Indicator: TA1537, Metabolic Activation: NONE, Method: PREINCUBATION
[5] = Test System: AMES SALMONELLA TYPHIMURIUM, Strain/Indicator: TA100, Metabolic Activation: RAT, LIVER, S-9, AROCLOR 1254, Method: STANDARD PLATE
[6] = Test System: AMES SALMONELLA TYPHIMURIUM, Strain/Indicator: TA98, Metabolic Activation: NONE, Method: STANDARD PLATE
[7] = Test System: AMES SALMONELLA TYPHIMURIUM, Strain/Indicator: TA100, Metabolic Activation: NONE, Method: STANDARD PLATE

Cc1ccc(Cl)cc1[N+](=O)[O-]
mutagenic call [1]: inactive; negative
mutagenic call (Test System: AMES SALMONELLA TYPHIMURIUM, Strain/Indicator: TA98, Metabolic Activation: RAT, LIVER, S-9, KANECHLOR 500, Method: PREINCUBATION): inactive; negative
mutagenic call [2]: inactive; negative
mutagenic call (Test System: AMES SALMONELLA TYPHIMURIUM, Strain/Indicator: TA100, Metabolic Activation: RAT, LIVER, S-9, KANECHLOR 500, Method: PREINCUBATION): inactive; negative

CC1CCc2c(N3CCC(O)CC3)c(F)cc3c(=O)c(C(=O)O)cn1c23 (configuration not stated)
mutagenic call [1]: inactive; negative
mutagenic call (Test System: AMES SALMONELLA TYPHIMURIUM, Strain/Indicator: TA98, Metabolic Activation: RAT, LIVER, S-9, NADPH, Method: PREINCUBATION): inactive; negative
mutagenic call [2]: inactive; negative
mutagenic call (Test System: AMES SALMONELLA TYPHIMURIUM, Strain/Indicator: TA100, Metabolic Activation: RAT, LIVER, S-9, NADPH, Method: PREINCUBATION): inactive; negative
mutagenic call [3]: inactive; negative
mutagenic call (Test System: AMES SALMONELLA TYPHIMURIUM, Strain/Indicator: TA1535, Metabolic Activation: RAT, LIVER, S-9, NADPH, Method: PREINCUBATION): inactive; negative
mutagenic call [4]: inactive; negative
mutagenic call (Test System: AMES SALMONELLA TYPHIMURIUM, Strain/Indicator: TA1537, Metabolic Activation: RAT, LIVER, S-9, NADPH, Method: PREINCUBATION): inactive; negative
mutagenic call (Test System: AMES SALMONELLA TYPHIMURIUM, Strain/Indicator: TA1538, Metabolic Activation: NONE, Method: PREINCUBATION): inactive; negative
mutagenic call (Test System: AMES SALMONELLA TYPHIMURIUM, Strain/Indicator: TA1538, Metabolic Activation: RAT, LIVER, S-9, NADPH, Method: PREINCUBATION): inactive; negative
mutagenic call (Test System: E. COLI, Strain/Indicator: WP2 UVRA, Metabolic Activation: RAT, LIVER, S-9, NADPH, Method: PREINCUBATION): inactive; negative
mutagenic call (Test System: E.COLI, Strain/Indicator: WP2 UVRA, Metabolic Activation: NONE, Method: PREINCUBATION): inactive; negative

O[C@H]1C=Cc2c(ccc3cc4c(cc23)[C@H](O)[C@@H](O)c2ccccc2-4)[C@@H]1O
mutagenic call [5]: inactive; negative

O=C1CCCCCCCCCCCC(=O)OCCO1
mutagenic call [1]: inactive; negative
mutagenic call (Test System: AMES SALMONELLA TYPHIMURIUM, Strain/Indicator: TA98, Metabolic Activation: RAT, LIVER, S-9, SODIUM PHENOBARBITAL AND 5,6-BENZOFLAVONE, Method: PREINCUBATION): inactive; negative
mutagenic call [2]: inactive; negative
mutagenic call (Test System: AMES SALMONELLA TYPHIMURIUM, Strain/Indicator: TA100, Metabolic Activation: RAT, LIVER, S-9, SODIUM PHENOBARBITAL AND 5,6-BENZOFLAVONE, Method: PREINCUBATION): inactive; negative
mutagenic call (Test System: AMES SALMONELLA TYPHIMURIUM, Strain/Indicator: TA102, Metabolic Activation: NONE, Method: PREINCUBATION): inactive; negative
mutagenic call (Test System: AMES SALMONELLA TYPHIMURIUM, Strain/Indicator: TA102, Metabolic Activation: RAT, LIVER, S-9, SODIUM PHENOBARBITAL AND 5,6-BENZOFLAVONE, Method: PREINCUBATION): inactive; negative
mutagenic call (Test System: AMES SALMONELLA TYPHIMURIUM, Strain/Indicator: TA104, Metabolic Activation: NONE, Method: PREINCUBATION): inactive; negative
mutagenic call (Test System: AMES SALMONELLA TYPHIMURIUM, Strain/Indicator: TA104, Metabolic Activation: RAT, LIVER, S-9, SODIUM PHENOBARBITAL AND 5,6-BENZOFLAVONE, Method: PREINCUBATION): inactive; negative
mutagenic call [3]: inactive; negative
mutagenic call (Test System: AMES SALMONELLA TYPHIMURIUM, Strain/Indicator: TA1535, Metabolic Activation: RAT, LIVER, S-9, SODIUM PHENOBARBITAL AND 5,6-BENZOFLAVONE, Method: PREINCUBATION): inactive; negative
mutagenic call [4]: inactive; negative
mutagenic call (Test System: AMES SALMONELLA TYPHIMURIUM, Strain/Indicator: TA1537, Metabolic Activation: RAT, LIVER, S-9, SODIUM PHENOBARBITAL AND 5,6-BENZOFLAVONE, Method: PREINCUBATION): inactive; negative
mutagenic call (Test System: E. COLI, Strain/Indicator: WP2UVRA/PKM101, Metabolic Activation: NONE, Method: PREINCUBATION): inactive; negative
mutagenic call (Test System: E. COLI, Strain/Indicator: WP2UVRA/PKM101, Metabolic Activation: RAT, LIVER, S-9, SODIUM PHENOBARBITAL AND 5,6-BENZOFLAVONE, Method: PREINCUBATION): inactive; negative
mutagenic call (Test System: E. COLI, Strain/Indicator: WP2UVRA, Metabolic Activation: NONE, Method: PREINCUBATION): inactive; negative
mutagenic call (Test System: E. COLI, Strain/Indicator: WP2UVRA, Metabolic Activation: RAT, LIVER, S-9, SODIUM PHENOBARBITAL AND 5,6-BENZOFLAVONE, Method: PREINCUBATION): inactive; negative

NC(=O)N(CCBr)N=O
mutagenic call (Test System: E. COLI B, Strain/Indicator: H/R30R, Metabolic Activation: NONE): active; positive
mutagenic call (Test System: E. COLI B, Strain/Indicator: HS30R, Metabolic Activation: NONE): active; positive

Nc1ccnc2ccccc12
mutagenic call [1]: inactive; negative
mutagenic call (Test System: AMES SALMONELLA TYPHIMURIUM, Strain/Indicator: TA98, Metabolic Activation: RAT, LIVER, S-9, KANECHLOR 500 OR PHENOBARBITAL AND BETA-NAPHTHOFLAVONE, Method: PREINCUBATION): inactive; negative
mutagenic call [2]: inactive; negative
mutagenic call (Test System: AMES SALMONELLA TYPHIMURIUM, Strain/Indicator: TA100, Metabolic Activation: RAT, LIVER, S-9, KANECHLOR 500 OR PHENOBARBITAL AND BETA-NAPHTHOFLAVONE, Method: PREINCUBATION): inactive; negative

O=C1c2ccccc2-c2ccccc21
mutagenic call (Test System: AMES SALMONELLA TYPHIMURIUM, Strain/Indicator: TA98, Metabolic Activation: HAMSTER, LIVER, S-9, AROCLOR 1254, Method: STANDARD PLATE): inactive; negative
mutagenic call [6]: inactive; negative
mutagenic call (Test System: AMES SALMONELLA TYPHIMURIUM, Strain/Indicator: TA98, Metabolic Activation: RAT, LIVER, S-9, AROCLOR 1254, Method: STANDARD PLATE): inactive; negative
mutagenic call (Test System: AMES SALMONELLA TYPHIMURIUM, Strain/Indicator: TA100, Metabolic Activation: HAMSTER, LIVER, S-9, AROCLOR 1254, Method: STANDARD PLATE): inactive; negative
mutagenic call [7]: inactive; negative
mutagenic call [5]: inactive; negative
mutagenic call (Test System: AMES SALMONELLA TYPHIMURIUM, Strain/Indicator: TA1535, Metabolic Activation: HAMSTER, LIVER, S-9, AROCLOR 1254, Method: STANDARD PLATE): inactive; negative
mutagenic call (Test System: AMES SALMONELLA TYPHIMURIUM, Strain/Indicator: TA1535, Metabolic Activation: NONE, Method: STANDARD PLATE): inactive; negative
mutagenic call (Test System: AMES SALMONELLA TYPHIMURIUM, Strain/Indicator: TA1535, Metabolic Activation: RAT, LIVER, S-9, AROCLOR 1254, Method: STANDARD PLATE): inactive; negative
mutagenic call (Test System: AMES SALMONELLA TYPHIMURIUM, Strain/Indicator: TA1537, Metabolic Activation: HAMSTER, LIVER, S-9, AROCLOR 1254, Method: STANDARD PLATE): inactive; negative
mutagenic call (Test System: AMES SALMONELLA TYPHIMURIUM, Strain/Indicator: TA1537, Metabolic Activation: NONE, Method: STANDARD PLATE): inactive; negative
mutagenic call (Test System: AMES SALMONELLA TYPHIMURIUM, Strain/Indicator: TA1537, Metabolic Activation: RAT, LIVER, S-9, AROCLOR 1254, Method: STANDARD PLATE): inactive; negative
mutagenic call (Test System: MOUSE LYMPHOMA, Strain/Indicator: L5178Y (TK+/TK-), Metabolic Activation: NONE, Method: SUSPENSION/PLATE): inactive; negative. reevaluation of results: inconclusive
mutagenic call (Test System: MOUSE LYMPHOMA, Strain/Indicator: L5178Y (TK+/TK-), Metabolic Activation: RAT, LIVER, S-9, AROCLOR 1254, Method: SUSPENSION/PLATE): inactive; negative. reevaluation of results: negative

Nc1ccc2cc(S(=O)(=O)O)cc(O)c2c1N=Nc1ccc([N+](=O)[O-])cc1S(=O)(=O)O
mutagenic call [6]: inactive; negative
mutagenic call (Test System: AMES SALMONELLA TYPHIMURIUM, Strain/Indicator: TA98, Metabolic Activation: RAT, LIVER, S-9, PHENOBARBITAL, Method: STANDARD PLATE): inactive; negative
mutagenic call [7]: inactive; negative
mutagenic call (Test System: AMES SALMONELLA TYPHIMURIUM, Strain/Indicator: TA100, Metabolic Activation: RAT, LIVER, S-9, PHENOBARBITAL, Method: STANDARD PLATE): inactive; negative
